Laboratory results reported in publication PMC10314922, “Fluorescence lifetime FRET assay for live-cell high-throughput screening of the cardiac SERCA pump yields multiple classes of small-molecule allosteric modulators” (Scientific Reports, 2023).
Several values for one entry are separate records, joined by “and”; a condition that tells them apart may be missing. Equal entries are not always repeated.

Columns and labels:
SERCA2a [1] = molecular target: T1, SERCA2a (Sus scrofa, UniProt P11607); assay: Oxalate-supported Fluo-4 Ca2+-uptake (Ca2+-transport) assay in pig cardiac SR (pCSR) vesicles; format: biochemical; conditions: for Effect on Ca2+-uptake (category, Fig. 4A): activators, categories activate / uncouple / inhibit; for CR (coupling ratio) VU/VA: maximum Ca2+-uptake rate / Ca2+-ATPase rate at [Ca2+]MAX, DMSO control = 0.66; for Ca2+-Uptake C10: concentration yielding 10% effect; for Decrease (inhibition) of Ca2+-uptake at [Ca2+]MAX: size of decrease
T1 construct: Cardiac SR vesicles were isolated from fresh porcine left ventricular tissue using differential centrifugation; from tissue; host or cells: porcine left ventricular tissue (cardiac SR vesicles)
Experimental: (§1) Cardiac SR vesicles were isolated from fresh porcine left ventricular tissue using differential centrifugation of the homogenized tissue as previously described. The SR vesicles were flash-frozen and stored at − 80 °C until needed. The SERCA concentration in the ER preparations purified from HEK cell homogenate is at least 10 times less than in purified porcine cardiac SR[20], but there was sufficient expression of the fluorescent SERCA2a biosensor in HEK cells to detect FRET with high precision by FLT[22],[23],[26].
Ca^2+-transport assays were performed with similar porcine SR samples as in the Ca^2+-ATPase assays described above. The compound effect on the Ca^2+-transport activity of SERCA2a was determined using an oxalate-supported assay in which the change in fluorescence in a Ca^2+-sensitive dye, Fluor-4, was determined as previously described. A buffered solution containing 50 mM MOPS (pH 7.0), 100 mM KCl, 30 mg/mL sucrose, 1 mM EGTA, 10 mM potassium oxalate, 2 µM Fluo-4, 30 µg/mL porcine cardiac SR vesicles, CaCl2 calculated to reach the free [Ca^2+] (pCa 8.0, 6.2, and 5.4), and compound (0.048 to 50 μM) was dispensed into 384-well black walled, transparent bottomed plates (Greiner Bio-One) containing the tested small molecule and incubated at 22℃ for 20 min while covered and protected from light. To start the reaction, MgATP was added to a final concentration of 5 mM, and the decrease in 485-nm excited fluorescence of Fluo-4 was monitored at 520 nm for 15 min using a FLIPR Tetra (Molecular Devices, San Jose, CA).
(§2) SERCA2a activity, F (rate of ATP hydrolysis or Ca^2+ uptake), was measured at varying pCa and varying compound concentration. F measured at [Ca^2+]MAX (saturating, pCa 5.4) or [Ca^2+]MID (subsaturating, midpoint, pCa 6.2) was corrected by subtracting the basal rate at pCa 8.0) and the % effect due to compound was reported. Concentration response curves (CRC) were fitted using the Hill function to determine VMAX (the activity at saturating [compound]), and EC50, the compound concentration at 50% effect.

SERCA2a [2] = molecular target: T1, SERCA2a; assay: NADH-linked Ca2+-ATPase activity assay in pig cardiac SR (pCSR) vesicles; format: biochemical; conditions: for Ca2+-ATPase C10: concentration yielding 10% effect; for Ca2+-ATPase ΔFMAX / Ca2+-ATPase ΔFMID: maximal compound effect vs DMSO control, pCSR; for Effect on Ca2+-ATPase activity (category, Fig. 4A): activators, categories activate / uncouple / inhibit
Experimental: as §1
Functional assays were performed using porcine cardiac SR (pCSR) vesicles. An enzyme-coupled, NADH-linked ATPase assay was used to measure SERCA ATPase activity in 384-well microplates. Each well contained 50 mM MOPS (pH 7.0), 100 mM KCl, 1 mM EGTA, 0.2 mM NADH, 1 mM phosphoenol pyruvate, 10 IU/mL of pyruvate kinase, 10 IU/mL of lactate dehydrogenase, 7 µM of the calcium ionophore A23187 (Sigma), and CaCl2 was added to set free [Ca^2+] to three different concentrations. Ca^2+-ATPase activity was measured at three [Ca^2+]: [Ca^2+]MAX (saturating, pCa 5.4), [Ca^2+]MID (subsaturating, midpoint, pCa 6.2), and [Ca^2+]BAS (basal non-activating, pCa 8.0). 10 μg/mL of SR vesicle, calcium, compound (0.048 to 50 μM), and assay mix were incubated for 20 min at room temperature before measurement of functional assays with each of the 18 hit compounds, because a shorter incubation time than the FRET live-cell assays achieved optimal responses. The assay was started upon the addition of MgATP, at a final concentration of 5 mM (total volume to 80 μL), and absorbance was read at 340 nm in a SpectraMax Plus^384 microplate spectrophotometer (Molecular Devices, Sunnyvale, CA).
as §2

[3] = molecular target: T2, human two-color SERCA2a (2CS) biosensor (Homo sapiens, UniProt P16615, INS508[…]); assay: FRET concentration response curves (FLT-FRET) with the 2CS biosensor in live HEK cells; format: cell-based
T2 construct: expressed in transfected cells
Description: A two-color intramolecular human SERCA2a (2CS) biosensor, based on human cardiac SERCA2a fused to green fluorescent protein (eGFP) and red fluorescent protein (tagRFP) was developed to detect structural changes that are related to the functional changes of SERCA[20],[22],[25]. Briefly, tagRFP was genetically fused to the N-terminus of SERCA (A-domain) and eGFP was inserted as an intrasequence tag before residue 509 in the nucleotide-binding domain (N-domain)[60],[61]. Donor-only and acceptor-only (1CS) biosensors were created in a similar manner as the 2CS biosensor but with the construct containing either only eGFP or only tag-RFP, respectively. […] A null-biosensor construct consisting of eGFP and tagRFP connected by a 32-residue unstructured flexible linker peptide (G32R) was created as described previously[23],[25]. All constructs were cloned into expression vectors containing the genes for antibiotic resistance to G418, puromycin, or blasticidin.
Stable cell lines were generated using either human embryonic kidney (HEK) HEK293 (ATCC, Manassas, VA) or HEK293-6E (National Research Council, Canada) cells. Briefly, cells were transiently transfected with 2CS, 1CS, or G32R null-biosensor plasmids using Lipofecatime 3000 or 293fectin (Thermo Fisher Scientific). Flow cytometry was used to select and enrich for the population of cells expressing respective biosensors. Stable HEK293 cell lines were maintained in phenol red-free DMEM media (Gibco, Waltham, MA) supplemented with 2 mM GlutaMAX (Gibco, Waltham, MA), 10% fetal bovine serum (FBS) (Atlanta Biologicals, Lawrenceville, GA), 1 IU/mL penicillin/streptomycin (Gibco, Waltham, MA), and 250 μg/mL G418 (Fisher Scientific). Stable HEK293-6E cell lines were maintained in F17 media (Sigma Aldrich) supplemented with Kolliphor p188 (Sigma Aldrich, St. Louis, MO), […] GlutaMAX, and either 1 μg/mL puromycin (Invitrogen, Carlsbad, CA) or 2 μg/mL blasticidin (Goldbio) as a selection antibiotic. All cell lines were grown at 37 °C with 5% CO2.
FRET CRC assay plates (0.78–100 μM compound range) with at least ten different compound concentrations were made by adding the appropriate volume of compound or DMSO into black 384 well plates (Greiner Bio-One) using a Mosquito HV (SPTLabTech, United Kingdom). Subsequent Ca^2+-ATPase activity and Ca^2+-transport CRC assay plates (0–50 μM compound range) with repurchased compounds were made in a similar manner using with the Echo 550 (Beckman Coulter) using either 384 well transparent plates (Greiner Bio-One) or black-walled plates with transparent bottoms (Greiner Bio-One), respectively.
On each day of screening, cells were harvested, washed three times with PBS, and centrifuged at 300 g for 5 min. Cells were filtered using a 70 µm cell strainer and diluted to 1–2 × 10^6 cells/mL. Cell concentration and viability were assessed using the Cell countess (Invitrogen) and trypan blue assay. During assays, cells were constantly and gently stirred using a magnetic stir bar at room temperature, keeping the cells in suspension and evenly distributed to avoid clumping. HEK 293-cells expressing 2CS were dispensed at 5 μL or […] per well into assay plates (dispensed into 40 assay plates, each containing 1536 wells) pre-plated with compounds (from a DIVERset 50,000 compound library) using a Multdrop Combi liquid dispenser (Thermo Fisher Scientific, Pittsburg, PA) and sealed until needed. Because the kinetics of membrane permeability, diffusion, and/or binding of the compound to live cells may be compound-dependent, we tested two incubation times, 20 min and 120 min, for the FRET CRC. […] Plates containing eight-point concentration curves of three tool compounds (known SERCA effectors thapsigargin, BHQ, and CPA)[22] were used as positive controls for biosensor function and performance prior to running the full-scale FRET-HTS assay. […]

[4] = [Ca2+]MID (pCa6.2), maximal compound effect vs DMSO control, pCSR

T1 sequence (P11607 1-997 isoform P11607-2): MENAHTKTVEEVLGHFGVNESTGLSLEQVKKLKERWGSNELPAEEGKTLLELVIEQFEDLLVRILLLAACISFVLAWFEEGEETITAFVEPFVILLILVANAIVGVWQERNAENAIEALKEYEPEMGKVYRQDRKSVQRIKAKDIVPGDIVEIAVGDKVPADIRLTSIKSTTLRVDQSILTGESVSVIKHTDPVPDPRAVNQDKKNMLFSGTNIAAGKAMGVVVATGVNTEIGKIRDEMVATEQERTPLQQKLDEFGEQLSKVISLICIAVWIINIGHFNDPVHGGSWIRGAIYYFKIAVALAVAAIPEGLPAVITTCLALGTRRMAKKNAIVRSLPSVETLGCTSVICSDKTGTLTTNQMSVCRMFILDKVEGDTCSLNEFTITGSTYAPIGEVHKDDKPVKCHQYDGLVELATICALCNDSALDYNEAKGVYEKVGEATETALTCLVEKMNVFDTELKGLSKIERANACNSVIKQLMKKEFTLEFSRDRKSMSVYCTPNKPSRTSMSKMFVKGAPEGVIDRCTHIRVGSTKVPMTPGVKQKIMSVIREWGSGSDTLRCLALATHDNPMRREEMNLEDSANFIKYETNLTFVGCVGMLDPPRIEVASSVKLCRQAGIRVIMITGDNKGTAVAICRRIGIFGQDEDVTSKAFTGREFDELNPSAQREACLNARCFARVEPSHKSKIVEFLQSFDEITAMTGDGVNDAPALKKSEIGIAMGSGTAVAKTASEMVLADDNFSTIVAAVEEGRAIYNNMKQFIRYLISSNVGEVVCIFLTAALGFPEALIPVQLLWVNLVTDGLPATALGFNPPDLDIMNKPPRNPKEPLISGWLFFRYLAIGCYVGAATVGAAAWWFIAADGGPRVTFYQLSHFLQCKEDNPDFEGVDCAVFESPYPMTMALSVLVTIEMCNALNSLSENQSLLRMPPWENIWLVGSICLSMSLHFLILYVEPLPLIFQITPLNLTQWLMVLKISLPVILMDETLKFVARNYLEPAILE
T2 sequence (P16615 other isoform, or with tags, fused parts or gaps with the stated changes): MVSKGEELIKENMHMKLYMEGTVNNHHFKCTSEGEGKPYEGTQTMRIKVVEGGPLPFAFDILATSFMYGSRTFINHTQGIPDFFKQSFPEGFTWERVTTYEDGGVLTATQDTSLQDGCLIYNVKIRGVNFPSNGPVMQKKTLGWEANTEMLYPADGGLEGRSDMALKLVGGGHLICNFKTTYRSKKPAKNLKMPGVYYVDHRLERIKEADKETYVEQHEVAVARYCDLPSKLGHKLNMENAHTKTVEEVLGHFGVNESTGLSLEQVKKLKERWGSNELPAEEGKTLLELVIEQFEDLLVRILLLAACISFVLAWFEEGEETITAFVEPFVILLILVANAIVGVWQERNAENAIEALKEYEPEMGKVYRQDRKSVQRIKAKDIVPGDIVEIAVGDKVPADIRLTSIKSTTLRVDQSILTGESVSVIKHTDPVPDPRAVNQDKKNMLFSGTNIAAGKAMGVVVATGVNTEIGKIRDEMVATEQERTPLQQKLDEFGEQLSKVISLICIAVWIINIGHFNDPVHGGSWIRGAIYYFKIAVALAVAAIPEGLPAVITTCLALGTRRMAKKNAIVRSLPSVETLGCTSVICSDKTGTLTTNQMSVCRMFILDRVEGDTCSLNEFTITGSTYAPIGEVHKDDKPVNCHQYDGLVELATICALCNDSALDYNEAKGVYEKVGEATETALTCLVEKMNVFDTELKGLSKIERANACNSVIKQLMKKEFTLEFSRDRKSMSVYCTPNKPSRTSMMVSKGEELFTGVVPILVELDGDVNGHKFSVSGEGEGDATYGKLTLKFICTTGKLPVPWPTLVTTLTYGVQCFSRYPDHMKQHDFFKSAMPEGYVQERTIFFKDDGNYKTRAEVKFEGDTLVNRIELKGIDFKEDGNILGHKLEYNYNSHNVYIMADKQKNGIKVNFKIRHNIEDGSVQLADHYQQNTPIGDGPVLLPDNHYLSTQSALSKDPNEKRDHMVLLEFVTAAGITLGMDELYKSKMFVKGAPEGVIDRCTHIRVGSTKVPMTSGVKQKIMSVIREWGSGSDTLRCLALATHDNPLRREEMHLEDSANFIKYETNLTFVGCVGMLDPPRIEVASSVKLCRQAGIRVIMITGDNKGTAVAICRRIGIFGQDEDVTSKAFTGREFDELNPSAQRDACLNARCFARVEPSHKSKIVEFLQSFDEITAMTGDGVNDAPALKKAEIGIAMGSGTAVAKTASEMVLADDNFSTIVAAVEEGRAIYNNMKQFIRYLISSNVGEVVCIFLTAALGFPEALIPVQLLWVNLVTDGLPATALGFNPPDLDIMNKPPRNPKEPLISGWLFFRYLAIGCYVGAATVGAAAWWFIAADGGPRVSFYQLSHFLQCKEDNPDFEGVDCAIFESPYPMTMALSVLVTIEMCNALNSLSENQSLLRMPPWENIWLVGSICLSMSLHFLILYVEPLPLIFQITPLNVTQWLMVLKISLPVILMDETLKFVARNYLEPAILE

Row | Structure (SMILES) | Ca2+-Uptake ΔFMAX (SERCA2a [1]; [Ca2+]MAX (pCa5.4), maximal compound effect vs DMSO control, pCSR) | Ca2+-Uptake ΔFMID (SERCA2a [1]; [4]) | Effect on Ca2+-uptake (category, Fig. 4A) (SERCA2a [1]) | CR (coupling ratio) VU/VA (SERCA2a [1]) | Increase in Ca2+-uptake (SERCA2a [1]; over [Ca2+]MAX and [Ca2+]MID) | Ca2+-ATPase C10 (SERCA2a [2]; [Ca2+]MAX (pCa5.4)) | Ca2+-ATPase ΔFMAX (SERCA2a [2]; [Ca2+]MAX (pCa5.4)) | Ca2+-ATPase ΔFMID (SERCA2a [2]; [Ca2+]MID (pCa6.2)) | Effect on Ca2+-ATPase activity (category, Fig. 4A) (SERCA2a [2]) | EC50 [3] | Ca2+-Uptake C10 (SERCA2a [1]; [Ca2+]MAX (pCa5.4)) | Decrease (inhibition) of Ca2+-uptake at [Ca2+]MAX (SERCA2a [1]) | Increase in Ca2+-ATPase activity (SERCA2a [2]) | EC50 (SERCA2a [2]; [Ca2+]MAX (pCa5.4)) | Ca2+-ATPase C10 (SERCA2a [2]; [Ca2+]MID (pCa6.2)) | Ca2+-Uptake C10 (SERCA2a [1]; [Ca2+]MID (pCa6.2))
1 | O=C(c1cc(COc2ccc3ncccc3c2)on1)N1CCC(c2ccncc2)CC1 [Compound 2, 6-[(3-{[4-(4-pyridinyl)-1-piperidinyl]carbonyl}-5-isoxazolyl)methoxy]quinoline] | 4 ± 6.1% | 4 ± 2.1% | uncouple | 0.53 | 0.5–10% | 48 µM | 16% and 16 ± 3% | 7% and 7 ± 3% | activate | 1400 ± 500 nM | – | – | – | – | – | –
2 | O=C(c1cc(COc2ccc3c(c2)CCCC3)on1)N1CCC(c2ccncc2)CC1 [Compound 3, 4-[1-({5-[(5,6,7,8-tetrahydro-2-naphthalenyloxy)methyl]-3-isoxazolyl}carbonyl)-4-piperidinyl]pyridine] | – | 6% and 6 ± 3.3% | inhibit | 0.39 | – | 11.0 µM | 21 ± 5.1% | 30 ± 11% | activate | 1600 ± 200 nM | 17.5 µM | 20% | 10–25% | 8400 ± 3100 nM | 14.8 µM | –
3 | COc1ccc(Cc2noc(CN3CCN(c4nc5ccccc5s4)CC3)n2)cc1OC [Compound 5, 2-(4-{[3-(3,4-dimethoxybenzyl)-1,2,4-oxadiazol-5-yl]methyl}-1-piperazinyl)-1,3-benzothiazole] | – | 20% and 20 ± 3.3% | inhibit | 0.47 | – | 22.7 µM | 25% and 25 ± 3.3% | 35% and 35 ± 8.2% | activate | 1500 ± 100 nM | – | 2% | 10–25% | – | 19.6 µM | 22.5 µM
